# Experimental data taken from PubChem BioAssay (NCI).
#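 Five compound concentrations were applied to cells in 96-well plates for 48 hours; endpoints were derived by simple linear interpolation of the resulting dose-response curve. GI50 = concentration required for 50% inhibition of growth. TGI: total growth inhibition.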
# Columns and labels:
# Experiment in all cases: NCI-60 cell line screen, 48 h
# SK-MEL-2 melanoma = test system: SK-MEL-2 melanoma
# HS 578T breast = test system: HS 578T breast
# BT-549 breast = test system: BT-549 breast
# SN12C renal = test system: SN12C renal
# COLO 205 colon = test system: COLO 205 colon
# RPMI-8226 leukemia = test system: RPMI-8226 leukemia
# M14 melanoma = test system: M14 melanoma
# HOP-62 NSCLC = test system: HOP-62 NSCLC
# ACHN renal = test system: ACHN renal
# PC-3 prostate = test system: PC-3 prostate
# MCF7 breast = test system: MCF7 breast
# SK-MEL-28 melanoma = test system: SK-MEL-28 melanoma
# HCC-2998 colon = test system: HCC-2998 colon
# NCI-H226 lung = test system: NCI-H226 lung
# SF-539 CNS = test system: SF-539 CNS
# SK-OV-3 ovarian = test system: SK-OV-3 ovarian
# HOP-92 NSCLC = test system: HOP-92 NSCLC
# OVCAR-5 ovarian = test system: OVCAR-5 ovarian
# UACC-257 melanoma = test system: UACC-257 melanoma
# MALME-3M melanoma = test system: MALME-3M melanoma
# UO-31 renal = test system: UO-31 renal
# HCT-15 colon = test system: HCT-15 colon
# HL-60(TB) leukemia = test system: HL-60(TB) leukemia
# SNB-19 CNS = test system: SNB-19 CNS
# MDA-MB-231 breast = test system: MDA-MB-231 breast
# CAKI-1 renal = test system: CAKI-1 renal
# 786-0 renal = test system: 786-0 renal
# EKVX NSCLC = test system: EKVX NSCLC
# U251 CNS = test system: U251 CNS
# K-562 leukemia = test system: K-562 leukemia
# A549 NSCLC = test system: A549 NSCLC
# SW-620 colon = test system: SW-620 colon
# SF-268 CNS = test system: SF-268 CNS
# IGROV1 ovarian = test system: IGROV1 ovarian
# DU-145 prostate = test system: DU-145 prostate
# OVCAR-4 ovarian = test system: OVCAR-4 ovarian
# MDA-MB-435 = test system: MDA-MB-435
# OVCAR-3 ovarian = test system: OVCAR-3 ovarian
# HCT-116 colon = test system: HCT-116 colon
# NCI/ADR-RES ovarian = test system: NCI/ADR-RES ovarian
# T-47D breast = test system: T-47D breast
# SK-MEL-5 melanoma = test system: SK-MEL-5 melanoma
# SNB-75 CNS = test system: SNB-75 CNS
# RXF 393 renal = test system: RXF 393 renal
# SF-295 CNS = test system: SF-295 CNS
# KM12 colon = test system: KM12 colon
# OVCAR-8 ovarian = test system: OVCAR-8 ovarian
# MOLT-4 leukemia = test system: MOLT-4 leukemia
# NCI-H460 lung = test system: NCI-H460 lung
# NCI-H522 lung = test system: NCI-H522 lung
# NCI-H23 lung = test system: NCI-H23 lung
# CCRF-CEM leukemia = test system: CCRF-CEM leukemia
# TK-10 renal = test system: TK-10 renal
# SR leukemia = test system: SR leukemia
# A498 renal = test system: A498 renal
# LOX IMVI melanoma = test system: LOX IMVI melanoma
# UACC-62 melanoma = test system: UACC-62 melanoma
smiles,measurement,setting,value
CC(=O)OCC1OC(S[As](C)C)C(OC(C)=O)C1OC(C)=O (stereo not drawn),GI50,SK-MEL-2 melanoma,1200 nM
same,TGI,SK-MEL-2 melanoma,7.82 µM
same,GI50,HS 578T breast,319 nM
same,TGI,HS 578T breast,841 nM
same,GI50,BT-549 breast,645 nM
same,TGI,BT-549 breast,2870 nM
same,GI50,SN12C renal,330 nM
same,TGI,SN12C renal,1510 nM
same,GI50,COLO 205 colon,176 nM
same,TGI,COLO 205 colon,2660 nM
same,TGI,RPMI-8226 leukemia,126 nM
same,GI50,M14 melanoma,193 nM
same,TGI,M14 melanoma,726 nM
same,GI50,HOP-62 NSCLC,3.35 µM
same,TGI,HOP-62 NSCLC,15.2 µM
same,GI50,ACHN renal,215 nM
same,TGI,ACHN renal,831 nM
same,GI50,PC-3 prostate,1110 nM
same,TGI,PC-3 prostate,13.1 µM
same,GI50,MCF7 breast,304 nM
same,TGI,MCF7 breast,1110 nM
same,GI50,SK-MEL-28 melanoma,446 nM
same,TGI,SK-MEL-28 melanoma,2730 nM
same,GI50,HCC-2998 colon,255 nM
same,TGI,HCC-2998 colon,1760 nM
same,GI50,NCI-H226 lung,1630 nM
same,TGI,NCI-H226 lung,6.27 µM
same,GI50,SF-539 CNS,226 nM
same,TGI,SF-539 CNS,907 nM
same,GI50,SK-OV-3 ovarian,1140 nM
same,TGI,SK-OV-3 ovarian,7.71 µM
same,GI50,HOP-92 NSCLC,328 nM
same,TGI,HOP-92 NSCLC,2570 nM
same,GI50,OVCAR-5 ovarian,481 nM
same,TGI,OVCAR-5 ovarian,2170 nM
same,GI50,UACC-257 melanoma,1570 nM
same,TGI,UACC-257 melanoma,7.06 µM
same,GI50,MALME-3M melanoma,107 nM
same,TGI,MALME-3M melanoma,696 nM
same,GI50,UO-31 renal,122 nM
same,TGI,UO-31 renal,1020 nM
same,GI50,HCT-15 colon,256 nM
same,TGI,HCT-15 colon,1080 nM
same,GI50,HL-60(TB) leukemia,81.3 nM
same,TGI,HL-60(TB) leukemia,648 nM
same,GI50,SNB-19 CNS,9.06 µM
same,TGI,SNB-19 CNS,29.5 µM
same,GI50,MDA-MB-231 breast,404 nM
same,TGI,MDA-MB-231 breast,2340 nM
same,GI50,CAKI-1 renal,79.1 nM
same,TGI,CAKI-1 renal,453 nM
same,GI50,786-0 renal,176 nM
same,TGI,786-0 renal,770 nM
same,GI50,EKVX NSCLC,1200 nM
same,TGI,EKVX NSCLC,9.05 µM
same,GI50,U251 CNS,546 nM
same,TGI,U251 CNS,2720 nM
same,GI50,K-562 leukemia,72.1 nM
same,TGI,K-562 leukemia,618 nM
same,GI50,A549 NSCLC,1940 nM
same,TGI,A549 NSCLC,13.6 µM
same,GI50,SW-620 colon,302 nM
same,TGI,SW-620 colon,1470 nM
same,GI50,SF-268 CNS,1310 nM
same,TGI,SF-268 CNS,7.53 µM
same,GI50,IGROV1 ovarian,732 nM
same,TGI,IGROV1 ovarian,4.06 µM
same,GI50,DU-145 prostate,217 nM
same,TGI,DU-145 prostate,836 nM
same,GI50,OVCAR-4 ovarian,1150 nM
same,TGI,OVCAR-4 ovarian,8.09 µM
same,GI50,MDA-MB-435,67.2 nM
same,TGI,MDA-MB-435,301 nM
same,GI50,OVCAR-3 ovarian,39.1 nM
same,TGI,OVCAR-3 ovarian,151 nM
same,GI50,HCT-116 colon,226 nM
same,TGI,HCT-116 colon,1380 nM
same,GI50,NCI/ADR-RES ovarian,259 nM
same,TGI,NCI/ADR-RES ovarian,2480 nM
same,GI50,T-47D breast,620 nM
same,TGI,T-47D breast,17.3 µM
same,GI50,SK-MEL-5 melanoma,162 nM
same,TGI,SK-MEL-5 melanoma,385 nM
same,GI50,SNB-75 CNS,511 nM
same,TGI,SNB-75 CNS,1990 nM
same,GI50,RXF 393 renal,455 nM
same,TGI,RXF 393 renal,2310 nM
same,GI50,SF-295 CNS,2060 nM
same,TGI,SF-295 CNS,7.33 µM
same,GI50,KM12 colon,2000 nM
same,TGI,KM12 colon,13.6 µM
same,GI50,OVCAR-8 ovarian,272 nM
same,TGI,OVCAR-8 ovarian,1570 nM
same,GI50,MOLT-4 leukemia,177 nM
same,TGI,MOLT-4 leukemia,765 nM
same,GI50,NCI-H460 lung,2360 nM
same,TGI,NCI-H460 lung,14.4 µM
same,GI50,NCI-H522 lung,139 nM
same,TGI,NCI-H522 lung,528 nM
same,GI50,NCI-H23 lung,551 nM
same,TGI,NCI-H23 lung,3.63 µM
same,GI50,CCRF-CEM leukemia,190 nM
same,TGI,CCRF-CEM leukemia,1340 nM
same,GI50,TK-10 renal,231 nM
same,TGI,TK-10 renal,843 nM
same,GI50,SR leukemia,25 nM
same,TGI,SR leukemia,290 nM
same,GI50,A498 renal,432 nM
same,TGI,A498 renal,3.06 µM
same,GI50,LOX IMVI melanoma,257 nM
same,TGI,LOX IMVI melanoma,991 nM
same,GI50,UACC-62 melanoma,357 nM
same,TGI,UACC-62 melanoma,1520 nM
